Test results reported in publication PMC11435058, “Synthesis of New Thiazole-Privileged Chalcones as Tubulin Polymerization Inhibitors with Potential Anticancer Activities” (Pharmaceuticals, 2024).
Like-named read-outs stand apart in the source and are kept apart here.

What was measured:
[1] = test system: 60 human tumor cell lines panel; test: NCI-60 anticancer screen, whole panel (means and ranges over the cell lines); type: cell-based; conditions: Homo sapiens, 48 h, dose of 10 μM
OVCAR-3 = test: cells; conditions: Homo sapiens, OVCAR-3, 48 h, read-out: Growth Percentage
K-562 = test: NCI-60 anticancer screen (SRB; single dose and five doses); conditions: Homo sapiens, K562, 48 h, read-out: Growth Percentage
SR = test: as above; conditions: Homo sapiens, 48 h, read-out: Growth Percentage
A549/ATCC = test: as above; conditions: Homo sapiens, A549, 48 h, read-out: Growth Percentage
EKVX = test: as above; conditions: Homo sapiens, 48 h, read-out: Growth Percentage
HOP-92 = test: as above; conditions: Homo sapiens, HOP-92, 48 h, read-out: Growth Percentage
NCI-H522 = test: as above; conditions: Homo sapiens, NCI-H522, 48 h, read-out: Growth Percentage
HT29 = test: as above; conditions: Homo sapiens, HT-29, 48 h, read-out: Growth Percentage
KM12 = test: as above; conditions: Homo sapiens, KM12, 48 h, read-out: Growth Percentage
SW-620 = test: as above; conditions: Homo sapiens, SW-620, 48 h, read-out: Growth Percentage
SF-539 = test: as above; conditions: Homo sapiens, SF-539, 48 h, read-out: Growth Percentage
SNB-75 = test: as above; conditions: Homo sapiens, SNB-75, 48 h, read-out: Growth Percentage
MDA-MB-435 = test: as above; conditions: Homo sapiens, MDA-MB-435, 48 h, read-out: Growth Percentage
SK-MEL-28 = test: as above; conditions: Homo sapiens, SK-MEL-28, 48 h, read-out: Growth Percentage
IGROV1 = test: as above; conditions: Homo sapiens, IGROV-1, 48 h, read-out: Growth Percentage
OVCAR-5 = test: as above; conditions: Homo sapiens, OVCAR-5, 48 h, read-out: Growth Percentage
NCI/ADR-RES = test: as above; conditions: Homo sapiens, 48 h, read-out: Growth Percentage
SK-OV-3 = test: as above; conditions: Homo sapiens, SK-OV-3, 48 h, read-out: Growth Percentage
A498 = test: as above; conditions: Homo sapiens, A498, 48 h, read-out: Growth Percentage, A498; dose of 10 μM
ACHN = test: as above; conditions: Homo sapiens, 48 h, read-out: Growth Percentage
CAKI-1 = test: as above; conditions: Homo sapiens, CAKI-1, 48 h, read-out: Growth Percentage
RXF 393 = test: as above; conditions: Homo sapiens, RXF 393, 48 h, read-out: Growth Percentage
SN12C = test: as above; conditions: Homo sapiens, 48 h, read-out: Growth Percentage
PC-3 = test: as above; conditions: Homo sapiens, PC-3, 48 h, read-out: Growth Percentage
DU-145 = test: as above; conditions: Homo sapiens, DU-145, 48 h, read-out: Growth Percentage
MDA-MB-231/ATCC = test: as above; conditions: Homo sapiens, MDA-MB-231, 48 h, read-out: Growth Percentage
HS 578T = test: as above; conditions: Homo sapiens, 48 h, read-out: Growth Percentage
CCRF-CEM = test: NCI-60 anticancer screen (SRB; single dose 10 μM and five doses); conditions: Homo sapiens, 48 h, read-out: Growth Percentage

SMILES: COc1ccc(/C=C/C(=O)c2sc(=S)[nH]c2C)cc1OC [2o, (E)-3-(3,4-Dimethoxyphenyl)-1-(4-Methyl-2-Thioxo-2,3-Dihydrothiazol-5-yl)Prop-2-En-1-One]
- activity at 10 µM ([1]; mean over the tested cell lines, read-out: Mean growth percentage): 55.1%
- activity at 10 µM ([1]; range over the cell lines, read-out: growth percentages against most of the tested cells (lowest to highest)): -0.42 to 126%
- activity at 10 µM (OVCAR-3): 3.22%
- activity at 10 µM (K-562): 32.4%
- activity at 10 µM (SR): 32.5%
- activity at 10 µM (A549/ATCC): 64.6%
- activity at 10 µM (EKVX): 54.2%
- activity at 10 µM (HOP-92): 83.7%
- activity at 10 µM (NCI-H522): 56.8%
- activity at 10 µM (HT29): 97.7%
- activity at 10 µM (KM12): 42.2%
- activity at 10 µM (SW-620): 34.9%
- activity at 10 µM (SF-539): 29.8%
- activity at 10 µM (SNB-75): 58.1%
- activity at 10 µM (MDA-MB-435): 38.9%
- activity at 10 µM (SK-MEL-28): 83.2%
- activity at 10 µM (IGROV1): 69.5%
- activity at 10 µM (OVCAR-5): 131%
- activity at 10 µM (NCI/ADR-RES): 26.9%
- activity at 10 µM (SK-OV-3): 76.9%
- activity at 10 µM (A498): 126%
- activity at 10 µM (ACHN): 64.9%
- activity at 10 µM (CAKI-1): 42%
- activity at 10 µM (RXF 393): 48.1%
- activity at 10 µM (SN12C): 45.4%
- activity at 10 µM (PC-3): 68.9%
- activity at 10 µM (DU-145): 48.1%
- activity at 10 µM (MDA-MB-231/ATCC): 58.4%
- activity at 10 µM (HS 578T): 84.7%
- activity at 10 µM (CCRF-CEM): 15.5%
